From patent US6136992A, “2-alkoxy estradiols and derivatives thereof” (The United States of America as represented by the …, priority 1998, dated 2000)
Where two headings read alike, the source gives them in different places.

How the values were obtained:
[1] = system: tubulin; assay: Inhibition of tubulin polymerization (turbidimetry at 350 nm); assay type: biochemical, bovine; conditions: 26° C., 20 min; read-out: Inhibn of Tubulin Polymn IC50
Experimental: Four instruments were used, and two control reaction mixtures were present in each experiment. […] IC50 values were determined graphically. […]
Inhibition of tubulin polymerization was investigated using electrophoretically homogeneous tubulin from bovine brain.

[2] = system: NCI-H460; assay: NCI screen, non-small cell lung cancer; assay type: cell-based; conditions: Homo sapiens, read-out: Log10 GI50, NCI-H460 (converted)
[3] = system: UO-31; assay: NCI screen, renal cancer; assay type: cell-based; conditions: Homo sapiens, read-out: Log10 GI50, UO-31 (converted)
[4] = system: SR; assay: NCI screen, leukemia; assay type: cell-based; conditions: Homo sapiens, read-out: Log10 GI50, SR (converted)
[5] = system: A549/ATCC; assay: NCI screen, non-small cell lung cancer; assay type: cell-based; conditions: Homo sapiens, read-out: Log10 GI50, A549/ATCC (converted)
[6] = system: EKVX; assay: NCI screen, non-small cell lung cancer; assay type: cell-based; conditions: Homo sapiens, read-out: Log10 GI50, EKVX (converted)
[7] = system: RPMI-8226; assay: NCI screen, leukemia; assay type: cell-based; conditions: Homo sapiens, read-out: Log10 GI50, RPMI-8226 (converted)
[8] = system: SK-MEL-5; assay: NCI screen, melanoma; assay type: cell-based; conditions: Homo sapiens, read-out: Log10 GI50, SK-MEL-5 (converted)
[9] = system: NCI-H23; assay: NCI screen, non-small cell lung cancer; assay type: cell-based; conditions: Homo sapiens, read-out: Log10 GI50, NCI-H23 (converted)
[10] = system: UACC-62 melanoma cells; assay: NCI in vitro anticancer screen, UACC-62 melanoma; assay type: cell-based; conditions: Homo sapiens
Excerpt: (§1) The effects of the analogs on cancer cell growth was investigated in the National Cancer Institute (NCI) Developmental Therapeutics Program's in vitro panel of approximately 55 cell lines (Grever et al., Seminars in Oncology 19:622 (1992), Alley et al., Cancer Research 48:589 (1988) and Montes et al., J. National Cancer Institute 83:757 (1991)). Representative results are listed in Table 1 for HOP-62 non-small-cell lung cancer cells, HCT-116 colon cancer cells, SF-539 central nervous system (CNS) cancer cells, UACC-62 melanoma cells, OVCAR ovarian cancer cells, SN12-C renal cancer cells, DU-145 prostate cancer cells, and MDA-MB-435 breast cancer cells.
(§2) ^a The cytotoxicity GI50 values are the concentrations

[11] = system: MDA-N; assay: NCI screen, breast cancer; assay type: cell-based; conditions: Homo sapiens, read-out: Log10 GI50, MDA-N (converted)
[12] = system: M14; assay: NCI screen, melanoma; assay type: cell-based; conditions: Homo sapiens, read-out: Log10 GI50, M14 (converted)
[13] = system: SF-539 central nervous system (CNS) cancer cells; assay: NCI in vitro anticancer screen, SF-539 CNS cancer; assay type: cell-based; conditions: Homo sapiens
Excerpt: as §1, §2

[14] = system: SNB-19; assay: NCI screen, CNS cancer; assay type: cell-based; conditions: Homo sapiens, read-out: Log10 GI50, SNB-19 (converted)
[15] = system: SW-260; assay: NCI screen, colon cancer; assay type: cell-based; conditions: Homo sapiens, read-out: Log10 GI50, SW-260 (converted)
[16] = system: HS 578T; assay: NCI screen, breast cancer; assay type: cell-based; conditions: Homo sapiens, read-out: Log10 GI50, HS 578T (converted)
[17] = system: SK-MEL-28; assay: NCI screen, melanoma; assay type: cell-based; conditions: Homo sapiens, read-out: Log10 GI50, SK-MEL-28 (converted)
[18] = system: NCI-H322M; assay: NCI screen, non-small cell lung cancer; assay type: cell-based; conditions: Homo sapiens, read-out: Log10 GI50, NCI-H322M (converted)
[19] = system: 786-0; assay: NCI screen, renal cancer; assay type: cell-based; conditions: Homo sapiens, read-out: Log10 GI50, 786-0 (converted)
[20] = system: SF-295; assay: NCI screen, CNS cancer; assay type: cell-based; conditions: Homo sapiens, read-out: Log10 GI50, SF-295 (converted)
[21] = system: OVCAR-8; assay: NCI screen, ovarian cancer; assay type: cell-based; conditions: Homo sapiens, read-out: Log10 GI50, OVCAR-8 (converted)
[22] = system: MCF7/ADR-RES; assay: NCI screen, breast cancer; assay type: cell-based; conditions: Homo sapiens, read-out: Log10 GI50, MCF7/ADR-RES (converted)
[23] = system: MOLT-4; assay: NCI screen, leukemia; assay type: cell-based; conditions: Homo sapiens, read-out: Log10 GI50, MOLT-4 (converted)
[24] = system: U251; assay: NCI screen, CNS cancer; assay type: cell-based; conditions: Homo sapiens, U-251, read-out: Log10 GI50, U251 (converted)
[25] = system: HTC-15; assay: NCI screen, colon cancer; assay type: cell-based; conditions: Homo sapiens, read-out: Log10 GI50, HTC-15 (converted)
[26] = system: K562; assay: NCI screen, leukemia; assay type: cell-based; conditions: Homo sapiens, read-out: Log10 GI50, K562 (converted)

C[C@]12CC[C@@H]3c4cc(OCC(F)(F)F)c(O)cc4C(=NO)C[C@H]3[C@@H]1CC[C@@H]2O [Compound 12, 2-(2',2', 2'-Trifluoroethoxy)-6-Hydroximino-Estra-1,3,5(10)-Triene-3,17β-Diol]
IC50 [1]: 0.5 µM | GI50 [2]: < 0.01 µM | GI50 [3]: < 0.01 µM | GI50 [4]: < 0.01 µM | GI50 [5]: < 0.01 µM | GI50 [6]: < 0.01 µM | GI50 [7]: < 0.01 µM | GI50 [8]: < 0.01 µM | GI50 [9]: < 0.01 µM | GI50 ([10]; UACC-62, read-out: cytotoxicity GI50, Melanoma UACC-62): < 0.01 µM | GI50 ([10]; UACC-62, Melanoma, read-out: Log10 GI50, UACC-62 (converted)): < 0.01 µM | GI50 [11]: < 0.01 µM | GI50 [12]: < 0.01 µM | GI50 ([13]; SF-539, CNS Cancer, read-out: Log10 GI50, SF-539 (converted)): < 0.01 µM | GI50 ([13]; read-out: cytotoxicity GI50, CNS SF-539): < 0.01 µM | GI50 [14]: < 0.01 µM | GI50 [15]: < 0.01 µM | GI50 [16]: < 0.01 µM | GI50 [17]: < 0.01 µM | GI50 [18]: < 0.01 µM | GI50 [19]: < 0.01 µM | GI50 [20]: < 0.01 µM | GI50 [21]: < 0.01 µM | GI50 [22]: < 0.01 µM | GI50 [23]: < 0.01 µM | GI50 [24]: < 0.01 µM | GI50 [25]: < 0.01 µM | GI50 [26]: < 0.01 µM
